Test results reported in patent US5103007A, “Lipids” (Takeda Chemical Industries, Ltd., priority 1988, dated 1992).
In brackets after ≈: the same amount, converted by molar mass.

Experiments:
breast cancer cells MM46 = assay: Action against breast cancer cells MM46 in C3H mice; format: in vivo, murine (C3H mice); settings: for Life-span prolongation ratio (T/C %): 0.20 mg/mouse once a day for 4 consecutive days, only related to mice which died; for No. of survivors/No. of mice tested: 0.20 mg/mouse once a day for 4 days, on the 60th day
Description: Action of the compounds obtained in Examples against breast cancer cells MM46
C3H mice (a group consisting of 5 mice) were inoculated intraperitoneally with 1×10^4 MM46 cells per mouse, and given 0.20 mg/mouse of compounds of Examples dissolved in physiological saline once a day for 4 consecutive days starting from the second day after the inoculation. Shown in Table 3 are the life-span prolongation ratio against the control group without treatment and the number of surviving mice on the 60th day after starting the test.

[1] = Acute toxicity in CDF-1 female mice; format: in vivo
Description: Acute toxicity of Compounds of Examples
CDF-1 female mice (5-week old: a group of consisting of 5 mice) were given once intraperitoneally 0.2 ml of a physiological saline solution of a compound of Example.

[2] = tested on: human nasopharynx cancer (KB cells); assay: Inhibition of multiplication of human nasopharynx cancer (KB cells), MTT assay; format: cell-based; settings: 72 hours
Description: (§1) The effect (IC50) of the compounds obtained by Examples in inhibiting multiplication of human nasopharynx cancer (KB cells) and human colon adenocarcinoma (colon 205 cells) Each well of a 96-well microtiter plate was inoculated with 0.1 ml of human nasopharynx cancer (KB cells) (1×10^4 /ml) or human colon adenocarcinoma (colon 205 cells) (2×10^4 /ml), which was then subjected to cultivation by allowing to stand at 37° C. for 24 hours in 5% CO2. To the culture was added a 10% MEM solution (manufactured by Nissui Seiyaku or RPMI-1640), and cultivation was continued at 37° C. for 72 hours in 5% CO2. Then, the culture solution was removed with a micro-pipette. […] Incubation was conducted at 37° C for 4 hours, to which was then added 0.1 ml of a 10% SDS (Wako Pure Chemical Industries, Ltd.), and the incubation was continued at 37° C. for 24 hours.

[3] = tested on: human colon adenocarcinoma (colon 205 cells); assay: Inhibition of multiplication of human colon adenocarcinoma (colon 205 cells), MTT assay; format: cell-based; settings: 72 hours
Description: as §1

[4] = tested on: murine colon cancer (colon 26); assay: Action against murine colon cancer (colon 26) in Balb/C mice; format: in vivo; settings: 0.3 mg/mouse i.p., eight times; tumor weight after 14 days, against untreated control
Description: Action of the compound in Example against murine colon cancer (colon 26)
Balb/C mice (a group consisting of five mice) were inoculated subcutaneously at dorsolateral area with 2×10^5 murine colon cancer (colon 26l) cells, and then given intraperitoneally 0.3 mg/mouse of the compound dissolved in physiological saline, eight times, i.e. 1 day, 2 days, 5 days, 6 days, 8 days, 9 days, 12 days and 13 days after the inoculation. After 14 days, the tumor tissue was extirpated and the tumor weight was weighed. Shown in Table 2 is tumor growth inhibition ratio against the untreated control.

Sarcoma 180 cells = assay: Antitumor effect against Sarcoma 180 cells in ICR mice; format: in vivo, murine (ICR mice); settings: for Life-span prolongation ratio (T/C %): 0.33 mg/mouse i.p. 1 hour, 1 day and 2 days after inoculation, only related to mice which died; for Number of survivors/number of mice tested: 0.33 mg/mouse i.p. three times, on the 60th day
Description: Antitumor effect of compounds of Examples against Sarcoma 180 cells
ICR mice (a group consisting of 5 mice) were inoculated intraperitoneally with 1×10^5 Sarcoma 180 cells per mouse. Then, 0.33 mg/mouse of a compound dissolved in physiological saline was intraperitoneally administered three times, i.e. 1 hour, 1 day and 2 days after the inoculation. Shown in Table 4 are the life-span prolongation ratio against the control group without treatment and the number of surviving mice on the 60th day after the initiation of the test.

[5] = 50 mg/kg once i.p., after 7 days

In the case of `CCCCCCCCCCCCCCCCCCOCC(CS(=O)(=O)CCOCC[n+]1ccsc1)Oc1ncccn1` (stereo not drawn) [Ex. 19, 2-[2-[3-octadecyloxy-2-(pyrimidin-2-yl-oxy)propylsulfonyl]ethoxy]ethylthiazolium chloride], the “Life-span prolongation ratio (T/C %)” value (breast cancer cells MM46) is reported as 154% and the “No. of survivors/No. of mice tested” value (breast cancer cells MM46) is reported as 2/5.
In the case of `CCCCCCCCCCCCCCCCCCOCC(C[S+]([O-])CCOCC[n+]1ccccc1)Oc1ncccn1.[Cl-]` (stereo not drawn) [Ex. 2, N-[2-[2-[3-octadecyloxy-2-(pyrimidin-2-yloxy)propylsulfinyl]ethoxy]ethyl]pyridinium chloride], the “No. of dead mice/No. of mice tested” value ([1]; mouse, in vivo) is reported as 0/5, the IC50 [2] is reported as 0.32 µg/mL and the IC50 [3] is reported as 0.16 µg/mL. The “Life-span prolongation ratio (T/C %)” value (breast cancer cells MM46) was 150% and the “No. of survivors/No. of mice tested” value (breast cancer cells MM46) was 2/5.
For `CCCCCCCCCCCCCCCCCCOCC(CSCCCOCCCn1ccnc1)Oc1ncccn1` (stereo not drawn) [Ex. 12, N-[3-[3-[3-octadecyloxy-2-(pyrimidin-2-yloxy)propylthio]propoxy]propyl]imidazole], the “No. of dead mice/No. of mice tested” value [1, 5] was 0/5.
With `CCCCCCCCCCCCCCCCCCOCC(C[S+]([O-])CCOCC[n+]1ccsc1)Oc1ncccn1` (stereo not drawn) [Ex. 1, 2-[2-[3-octadecyloxy-2-(pyrimidin-2-yloxy)propylsulfinyl]ethoxy]ethylthiazolium chloride] the “Growth inhibition ratio (1-T/C %)” value [4] was 48%, the “No. of dead mice/No. of mice tested” value ([1]; mouse, in vivo) was 0/5 and the IC50 [2] was 1.25 µg/mL. For the same compound, the IC50 [3] was 1.25 µg/mL, the “Life-span prolongation ratio (T/C %)” value (Sarcoma 180 cells) was 235% and the “Number of survivors/number of mice tested” value (Sarcoma 180 cells) was 2/5. For the same compound, the “Life-span prolongation ratio (T/C %)” value (breast cancer cells MM46) was 147% and the “No. of survivors/No. of mice tested” value (breast cancer cells MM46) was 4/5.
For `CCCCCCCCCCCCCCCCCCOCC(CSCCOCC[n+]1ccn(CCCCCC(=O)[O-])c1)Oc1ncccn1` (stereo not drawn) [Ex. 9, 6-[3-[2-[2-[3-octadecyloxy-2-(pyrimidin-2-yloxy)propylthio]ethoxy]ethyl]imidazolio-1-yl]hexanoate], the “No. of dead mice/No. of mice tested” value ([1]; mouse, in vivo) was 0/5, the IC50 [2] was 0.32 µg/mL (≈ 0.463 µM) and the IC50 [3] was 0.63 µg/mL (≈ 0.912 µM).
In the case of `CCCCCCCCCCCCCCCCCCOCC(C[S+]([O-])CCOCC[N+](C)(C)C)Oc1ncccn1.[Cl-]` (stereo not drawn) [Ex. 24, N-[2-[2-[3-octadecyloxy-2-(pyrimidin-2-yloxy)propylsulfinyl]ethoxy]ethyl]-N,N,N-trimethylammonium chloride], the “No. of dead mice/No. of mice tested” value ([1]; mouse, in vivo) is reported as 0/5, the IC50 [2] is reported as less than 0.16 µg/mL and the IC50 [3] is reported as 0.63 µg/mL. For the same compound, the “Life-span prolongation ratio (T/C %)” value (Sarcoma 180 cells) was 195% and the “Number of survivors/number of mice tested” value (Sarcoma 180 cells) was 1/5.
For `CCCCCCCCCCCCCCCCCCOCC(CSCCOCC[n+]1ccn(CCCC(=O)[O-])c1)Oc1ncccn1` (stereo not drawn) [Ex. 11, 4-[3-[2-[2-[3-octadecyloxy-2-(pyrimidin-2-yloxy)propylthio]ethoxy]ethyl]imidazolio-1-yl]butyrate], the “No. of dead mice/No. of mice tested” value [1, 5] was 0/5.
For `CCCCCCCCCCCCCCCCCCOCC(C[S+]([O-])CCOCC[n+]1csc(CCO)c1C)Oc1ncccn1.[Cl-]` (stereo not drawn) [Ex. 6, 5-(2-hydroxyethyl)-4-methyl-3-[2-[2-[3-octadecyloxy-2-(pyrimidin-2-yloxy)propylsulfinyl]ethoxy]-ethyl]thiazolium chloride], the IC50 [2] was 0.32 µg/mL, the IC50 [3] was 0.63 µg/mL and the “Life-span prolongation ratio (T/C %)” value (Sarcoma 180 cells) was 213%. For the same compound, the “Number of survivors/number of mice tested” value (Sarcoma 180 cells) was 1/5.
In the case of `CCCCCCCCCCCCCCCCCCOCC(CS(=O)(=O)CCOCC[N+](C)(C)C)Oc1ncccn1.[Cl-]` (stereo not drawn) [Ex. 21, N-[2-[2-[3-octadecyloxy-2-(pyrimidin-2-yloxy)propylsulfonyl]ethoxy]ethyl]-N,N,N-trimethylammonium chloride], the IC50 [2] is reported as 0.32 µg/mL, the “Life-span prolongation ratio (T/C %)” value (breast cancer cells MM46) is reported as 144% and the “No. of survivors/No. of mice tested” value (breast cancer cells MM46) is reported as 2/5.
For `CCCCCCCCCCCCCCCCCCOCC(C[S+]([O-])CCOCC[n+]1cccc(CCCO)c1)Oc1ncccn1.[Cl-]` (stereo not drawn) [Ex. 3, 3-(3-hydroxypropyl)-1-[2-[2-[3-octadecyloxy-2-(pyrimidin-2-yloxy)propylsulfinyl]ethoxy]-ethyl]pyridinium chloride], the IC50 [2] was 0.16 µg/mL, the IC50 [3] was 0.63 µg/mL and the “Life-span prolongation ratio (T/C %)” value (Sarcoma 180 cells) was 223%. The “Number of survivors/number of mice tested” value (Sarcoma 180 cells) was 2/5.
